Patent publication US20230235286A1, “MRNA TRANSFECTION OF IMMUNE CELLS” (Carisma Therapeutics Inc., priority 2020, published 2023)

B1: CD40L: Recombinant CD40 ligand (Peprotech) (protein, UniProt P29965 113-261, looked up)
CD40 ligand, soluble form: MQKGDQNPQIAAHVISEASSKTTSVLQWAEKGYYTMSNNLVTLENGKQLTVKRQGLYYIYAQVTFCSNREASSQAPFIASLCLKSPGRFERILLRAANTHSSAKPCGQQSIHLGGVFELQPGASVFVNVTDPSQVSHGTGFTSFGLLKL
B2: IFN-γ: recombinant human IFN-γ (peprotech) (protein, UniProt P01579 24-161, looked up)
Interferon gamma: QDPYVKEAENLKKYFNAGHSDVADNGTLFLGILKNWKEESDRKIMQSQIVSFYFKLFKNFKDDQSIQKSVETIKEDMNVKFFNSNKKKRDDFEKLTNYSVTDLNVQRKAIHELIQVMAELSPAAKTGKRKRSQMLFRG

Experiments:
human macrophages [1] = assay: Cytokine secretion of CAR macrophages co-cultured with HER2+ breast cancer cells (MSD); assay type: cell-based; settings: supernatant 48 hours after co-culture, E:T 3:1
From the text: (§1) M1/M2 markers on primary human macrophages were detected with the following panel: Anti-CD11B PE (Biolegend, 301306), Anti-CD80 BV605 (Biolegend, 305225), Anti-CD86 BV711 (Biolegend, 305440), Anti CD206 BV421 (Biolegend, 321126), Anti CD163 APC-CY7 (Biolegend, 333622), anti HLA-DR BV785 (Biolegend, 307642), Anti HLA ABC PE/CY7 (Biolegend, 311430) and Live/Dead Fixable Aqua Dead Cell Stain Kit. Cytokine production (IL12, IFN-γ, TNF-α, IL6, IL8, IL1b, MCP-1, IL10, IL4, IL13, and other human cytokines) was evaluated in supernatant collected from macrophages (control or CAR) treated as described below using the MSD instrument per manufacturers recommendations (Meso Scale Discovery). In some cases, macrophages were co-cultured with antigen-bearing target cells at indicated effector to target ratios.
Human macrophages were electroporated with 150 nM HER2 CAR mRNA comprising m6AGCap1 and PsU modifications. HER2+ breast cancer cells (CRL2351) were co-cultured with CAR macrophages after the macrophages were transfected with the CAR mRNA at an Effector (CAR macrophage) to Target (cancer cell) ratio of 3:1. Supernatant was collected 48 hours after the cancer cells and macrophages were co-cultured and cytokine levels were measured using a Meso Scale Discovery (MSD) instrument.

human macrophages [2] = assay: M1/M2 marker expression on CAR macrophages by flow cytometry; assay type: cell-based; settings: mRNA transfected CAR macrophages
From the text: IFN containing media was washed off after the indicated time. IFN-primed CAR macrophages were used for further analysis.
as §1
(§2) Human macrophages were electroporated with HER2 CAR mRNA comprising m6AGCap1 and PsU modifications. Cells were cultured with cytokines that induce an M1 phenotype such as IFN-alpha, IFN-beta, IFN-gamma, IFN-gamma plus lipopolysaccharide (LPS), TNF-alpha, IL-6 or a STING ligand (STING-L) for up to 48 hours and then cytokines were washed off and fresh media was added. CAR expression and M1 marker expression were measured on days 2 and 7 after transfection. Fluorescent labeled HER2+ breast cancer cells (CRL2351) were co-cultured with HER2 CAR macrophages two days after the macrophages were transfected. Cancer cell growth was monitored via its fluorescence on an Incucyte live imaging microscope every four hours. The Effector (CAR macrophage) to Target (cancer cell) ratio was 5:1.
Human macrophages were electroporated with 300 nM CAR mRNA comprising m6AGCap1 and PsU modifications. Cells were cultured with 20 ng/mL IFNs for 24 hours and then the cells were washed to remove cytokines. CAR expression was detected by Flow Cytometry (Attune) on day 2 after transfection. Cells were then co-cultured with a Nuc-Light labeled, HER2+ breast cancer cell line (CRL2351) at the Effector to Target ratio of 3:1. Cancer cell growth was monitored via its fluorescence on an Incucyte live imaging microscope. CAR expression and M1 markers in macrophages were detected by Flow Cytometry (Attune) on day 7 after transfection.

human macrophages [3] = assay: CAR expression on macrophages by flow cytometry; assay type: cell-based; settings: two days after transfection, 20 ng/mL IFNs for 24 hours
human macrophages [4] = assay: mCherry expression in transfected macrophages with IFN-γ, sunitinib or ABCE1 (Incucyte); assay type: cell-based; settings: cultured one day with different doses of IFN-γ
Protocol: The transfection efficiency, persistence of expression, and intensity of expression of the fluorescent reporter gene mCherry in human monocytes or macrophages was evaluated using real time live microscopy on the Incucyte (Sartorius) for the indicated period of time.
Macrophages were treated with 0-10 µM sunitinib (an RNAse-L inhibitor) for 2 hours prior to mRNA electroporation or transfection. The level of expression and persistence of expression of the encoded transgene was assessed using methods described above.
Human macrophages were transfected with mCherry mRNA comprising m6AGCap1 and PsU or N1mPsU modifications and were then cultured for one day with different doses of IFN-γ. mCherry expression was monitored on an Incucyte live imaging microscope.
In order to determine whether an RNaseL inhibitor could rescue IFN-γ-induced instability of transfected mRNA, human macrophages were treated with 1 µM sunitinib (an RNaseL inhibitor) two hours prior to the transfection of mCherry mRNA comprising m6AGCap1 and PsU modifications. Transfected cells were then cultured for one day with different dosages of IFN-γ. mCherry expression was monitored on an Incucyte live imaging microscope.
The effect of another RNaseL inhibitor (RLI or ABCE1) was also tested to further validate the concept. […]

[5] = test system: CRL-2351 cells expressing nuclear GFP; assay: Tumor killing by macrophages and CAR macrophages primed on plates coated with CD40L, 4-1BB or 4-1BBL; assay type: cell-based, human; settings: plate-coated protein
Protocol: (§3) To generate Her2-Zeta CAR expressing macrophages, primary human macrophages were suspended in EP buffer (MaxCyte) containing 300 nM mRNA (TriLink) at a concentration of 90×10^6 cells/mL. 100 µL of cell mixture was added to an electroporation cassette (OC 100x2; MaxCyte) and electroporated using the Experimental T cell 1 setting. Cells were removed from the cassette, plated in 3 mL of TexMACS media (Miltenyi Biotech) containing 20% FBS (Gibco) on UpCell plates (Thermo Scientific), and incubated overnight at 37° C. and 5% CO2.
(§4) Recombinant CD40 ligand (Peprotech), 4-1BB ligand (Enzo Life Sciences), and 4-1BB receptor (Peprotech) were re-suspended in molecular grade water to a stock concentration of 100 µg/mL. Stock solution was then used to create working solutions in PBS ranging from 2 -0.002 µg/mL. 100 µL of working solution was added to wells in a 96-well plate and left at room temperature for 4 hours.
Plates were removed from the incubator and left at room temperature for 30 minutes. Cells were detached from plate, counted using the NC-200 automated cell counter (Chemomtech), and re-suspended in TexMACS media with 10% FBS. […] Cell lysis was detected using the Incucyte (Essen Bioscience). Tumor cell death was calculated by integrated GFP intensity per well relative to time 0.

[6] = test system: primary human macrophages; assay: M1 and M2 marker expression after priming with CD40L, 4-1BB or 4-1BBL; assay type: cell-based; settings: macrophages transfected with CAR mRNA, 3 days
Protocol: as §3, §4
For detection of cell surface proteins, macrophages were plated onto wells coated with agonist molecules in a final volume of 200 µL TexMACS media + 10% FBS + 10 ng/mL GM-CSF and incubated for 3 days at 37° C. and 5% CO2. Cells were incubated in 300 µL Accutase (Sigma) for 30 min and transferred to 96-well round bottom plate for staining. Cells were incubated in FACS buffer containing 20 µg/mL Her2-His for 20 min at RT, followed by incubation in Human TruStain FcX for 10 min at RT. […]

human macrophages [7] = assay: Viability of macrophages electroporated or transfected with CAR mRNA (FACS); assay type: cell-based; settings: two days after transfection, 20 ng/mL IFNs for 24 hours
Protocol: as §2, with “The Effector (CAR macrophage) to Target (cancer cell) ratio was 5:1.” left out
Five different mRNA modifications were also tested to determine if interferon treatment differentially affected macrophages transfected with mRNA comprising different modifications. […] CAR expression and M1 markers were detected by Flow Cytometry (Attune) on day four after electroporation. […] Cancer cell growth was monitored via its fluorescence on an Incucyte live imaging microscope every four hours.
Human macrophages were electroporated with 300 nM CAR mRNA comprising m6AGCap1 and PsU modifications. […] CAR expression was detected by Flow Cytometry (Attune) on day 2 after transfection. […] Cancer cell growth was monitored via its fluorescence on an Incucyte live imaging microscope. […]

Molecule | cytokine secretion (human macrophages [1]) | M1 phenotype based on CD86 expression (human macrophages [2]) | M2 markers based on CD163 expression (human macrophages [2]) | further results
IFN-α | increased secretion of the cytokines IL-6, IL-8 and TNFα | induction of an M1 phenotype | reduction of M2 markers | 
IFN-γ: recombinant human IFN-γ (peprotech) | increased secretion of the cytokines IL-6, IL-8 and TNFα | induction of an M1 phenotype | reduction of M2 markers | CAR expression (human macrophages [3]): very high except in macrophages that had been treated with IFN-γ; mCherry mRNA expression (human macrophages [4]): reduced mCherry mRNA expression
B1 |  |  |  | tumor killing ability of macrophages and CAR macrophages [5]: significantly improved the tumor killing ability; M1 phenotype (M1 and M2 markers) [6]: induced an M1 phenotype
B2 |  |  |  | CAR macrophage viability (human macrophages [7]): very high except in macrophages that had been treated with IFN-γ
